{"source": "paper PMC11089243", "about": "“The first selective VAP-1 inhibitor in China, TT-01025-CL: safety, tolerability, pharmacokinetics, and pharmacodynamics of single- and multiple-ascending doses” (Frontiers in Pharmacology, 2024)", "origin": "cited, not measured here", "key": {"[1]": {"parameters": "method as in NASH, 2022", "settings": "ref NASH, 2022"}, "[2]": {"system": "monoamine oxidase-B in the brain", "parameters": "method as in NASH, 2022", "settings": "NASH patients; inhibition of monoamine oxidase-B in the brain; ref NASH, 2022"}}}
{"smiles": "CC(C)(C)NC(=O)c1ccc(OC/C(=C/F)CN)cc1.Cl", "note": "[BI 1467335]", "values": [{"measurement": "brain penetration (in words)", "setting": "[1]", "result": "high brain penetration"}, {"measurement": "finding of phase I study leading to suspension of development", "setting": "[2]", "result": "risk of drug interactions"}]}
